According to patent US7807368B2, “Cyclin-dependent kinase inhibitors as targets for opiod growth factor treatment” (priority 2006, dated 2010):

Experiments:
Type in all cases: cell-based, human
SCC-1 cells [1] = assay: siRNA knockdown of OGFr, growth of SCC-1 cells
Experimental: siRNA knockdown of OGFr. […] For transfection, 5×10^4 cells per well were seeded in 6-well plates containing 1 ml of serum-containing media without antibiotics. In each well, 20 nM OGFr-siRNA or control siRNA solutions in serum-free media were added. Cells were incubated for 4 h at 37° C. prior to the addition of OGF. Cultures were incubated an additional 20 h, and then 1 ml fresh complete media either lacking or containing OGF was added. […] Two independent experiments were conducted. The control siRNAs were purchased from Ambion.

p21 = assay: Western blot of p21, p27 and Cdk2 in BxPC-3 cells; conditions: synchronized BxPC-3 cells, 9 hours, 10^-6 M OGF, 10^-5 M naloxone
Experimental: (§1) Synchronized cells (2×10^6) from each treatment were solubilized in 200 μl RIPA buffer (1×PBS, 10 μM IGEPAL, 1 mg/ml SDS, 5 mg/ml deoxycholic acid), containing protease and phosphatase inhibitors (2 μg/ml aprotinin, 3 mg/ml phenylmethyl sulfonyl fluoride, 1 mM sodium orthovanidate, 1 μM okadaic acid). Total protein concentrations were measured using the DC protein assay kit (Bio-Rad Laboratories, Hercules, Calif.). Equal amounts of protein (40 μg) were subjected to 10% SDS-PAGE followed by transfer of proteins onto polyvinylidene difluoride (Millipore, Billerica, Mass.) using standard protocols.
The following antibodies were purchased from commercial sources: phospho-Rb (Ser795), phospho-Rb (Ser807/811) (Cell Signaling Technology, Beverly, Mass.); Cdk2, p57 (Santa Cruz Biotechnology, Santa Cruz, Calif.); p21, p27, total Rb (BD PharMingen, San Diego, Calif.); β-actin (Clone AC-15, Sigma-Aldrich).
Membranes were probed with secondary anti-rabbit or anti-mouse horseradish peroxidase-conjugated antibodies (GE Healthcare-Amersham Biosciences, Piscataway, N.J.), and developed using a chemiluminescence Western blotting detection system.
(§2) To determine equal loading of total protein samples, blots were re-probed with monoclonal antibody against β-actin at a dilution of 1:2000. If necessary, membranes were processed in stripping buffer (62.5 mM Tris-HCI and 100 mM β-mercaptoethanol/2% SDS, pH 6.7) at 50° C. before being re-probed.
To quantify expression levels or kinase activity, the optical density of each band was determined by densitometry and analyzed by QuickOne (Bio-Rad Laboratories). Each value was normalized to β-actin from the same blot. To report the changes due to OGF treatment, we calculated the fold increase by dividing the normalized value from the OGF treated samples by the normalized value of control samples at each time point; thus, increases due to OGF have values greater than one, and decreases due to OGF have values less than one. For all Western blot analyses, 3 or more independent experiments were performed.
The p21-targeted siRNAs were obtained from Santa Cruz Biotechnology, and negative control siRNAs were purchased from Ambion (Ambion, Inc., Austin, Tex.). For transfection, 2×10^5 cells per well were seeded in 6-well plates containing 1 ml of media without antibiotics. For each well, 1 μl of siRNA stock (20 μM) was mixed with 175 μl of serum-free media. Two μl of Oligofectamine reagent (Invitrogen, Carlsbad, Calif.) was added to prewashed cells in each well, making the final concentration for siRNA approximately 20 nM. Cells were incubated for 4 hours at 37° C. prior to the addition of OGF. Eighteen hours later, 1 ml fresh complete media with or without OGF was added to the cultures; media and OGF were replaced daily. At the indicated time points, cells were collected for growth curves or Western blotting.

p16 [2] = assay: Western blot of p16, other CKIs and Cdk4 in SCC-1 cells; conditions: for p16 expression: synchronized SCC-1 cells, 3 h, 10^-6 M OGF, 10^-5 M naloxone
Experimental: Synchronized cells (˜2×10^6) from each treatment were solubilized in 200 μl RIPA buffer (1×PBS, 10 μM IGEPAL, 1 mg/ml SDS, 5 mg/ml deoxycholic acid), containing protease and phosphatase inhibitors (2 μg/ml aprotinin, 3 mg/ml phenylmethyl sulfonyl fluoride (PMSF), 1 mM sodium orthovanidate, 1 μM okadaic acid). Total protein concentrations were measured using the DC protein assay kit (Bio-Rad Laboratories, Hercules, Calif.). Equal amounts of protein (40 μg) were subjected to 10% SDS-PAGE followed by transfer of proteins onto polyvinylidene difluoride (Millipore, Billerica, Mass.) using standard protocols. The following antibodies were purchased from commercial sources: phospho-Rb (Ser795), phospho-Rb (Ser807/811) (Cell Signaling Technology, Beverly, Mass.); phospho-Rb (Thr821) (Biosource, Camarillo, Calif.); Cdk4, cyclin D1, p15, p16, p18, p19 (Santa Cruz Biotechnology, Santa Cruz, Calif.); total Rb, p21, p27 (BD PharMingen, San Diego, Calif.); β-actin (Clone AC-15, Sigma). The following dilutions of primary antibodies were used to detect respective proteins. 1:200 phospho-Rb (Ser795), 1:200 phospho-Rb (Ser807/811); 1:200 phospho-Rb (Thr821); 1:200 Cdk4, 1:200 cyclin D1, 1:100 p16; 1:200 total Rb, 1:200 p21, 1:100 p27. Membranes were probed with secondary anti-rabbit or anti-mouse horseradish peroxidase-conjugated antibodies (GE Healthcare-Amersham Biosciences, Piscataway, N.J.); blots were developed using a chemiluminescence Western blotting detection system (GE Healthcare-Amersham Biosciences).
as §2, with “reprobed” for “re-probed”, “stripped” for “processed”, “Tris-HCl” for “Tris-HCI”, “re-probed. Means and SE were determined from 3 or more independent experiments.” for “re-probed.”
To quantify expression levels or kinase activity, the optical density of each band was determined by densitometry and analyzed by QuickOne (Bio-Rad Laboratories). Each value was normalized to β-actin from the same blot. To report the changes due to OGF treatment, the fold increase was calculated by dividing the normalized value from the OGF treated samples by the normalized value of control samples at each time point; thus, increases due to OGF have values greater than one, and decreases due to OGF have values less than one.
(§3) The p16-targeted siRNAs (antisense:5′ […]-3′; sense (SEQ ID NO:5): 5′ […]-3′(SEQ ID NO:6) were obtained as ready-annealed, purified duplex probes (Invitrogen, Carlsbad, Calif.). For transfection, 2×10^5 cells per well were seeded in 6-well plates containing 1 ml of serum-free media without antibiotics. In each well, 20 nM of p16-siRNA or control siRNA solutions in serum-free media were added. Cells were incubated for 4 h at 37° C. prior to the addition of OGF. Cultures were incubated for additional 20 h, and then 1 ml fresh complete media either lacking or containing OGF was added. At the indicated time points, cells were collected for growth curves or Western blotting. Three or more independent experiments were conducted. The control siRNAs were purchased from Ambion.

p16 [3] = assay: Western blot of p16 in CAL-27 cells; conditions: CAL-27 cells transfected with p16 siRNA
Experimental: (§4) The SCC-1 (UM-SCC-1) cell line was obtained from the University of Michigan Cancer Research Laboratory, and CAL-27 and SCC-4 cells were obtained from the American Type Culture Collection (Manassas, Va.). SCC-1 and CAL-27 cells were cultured in DMEM media, whereas SCC-4 cells were grown in 1:1 Hams F-12 DMEM media. All media was supplemented with 10% fetal bovine serum (HyClone, Logan, Utah), 1.2% sodium bicarbonate, and 5000 units/ml penicillin, 5 μg/ml streptomycin and 10 μg/ml neomycin. OGF was purchased from Sigma-Aldrich (St. Louis, Mo.), dissolved in sterile water, and used at a final concentration of 10^−6 M.
as §1, with “(˜2×10^6)” for “(2×10^6)”, “fluoride (PMSF),” for “fluoride,”, “protocols. […]” for “protocols.”

SCC-1 cells [4] = assay: Growth of SCC-1 cells transfected with p16 siRNA or negative control siRNA; conditions: SCC-1 cells transfected with p16 siRNA, exposed to OGF for 96 h
Experimental: as §3

p16 [5] = assay: Western blot of p16 in SCC-4 cells; conditions: SCC-4 cells transfected with p16 siRNAs, 72 h
Experimental: as §4
as §1, with “(˜2×10^6)” for “(2×10^6)”, “fluoride (PMSF),” for “fluoride,”, “protocols. […]” for “protocols.”

Compound: O=C1CC[C@@]2(O)[C@H]3Cc4ccc(O)c5c4[C@@]2(CCN3CC2CC2)[C@H]1O5 [NTX]
- effect on growth of OGFr-siRNA cultures (SCC-1 cells [1]; SCC-1 cells subjected to OGFr-siRNA, 10^-6 M): no further effects
- increase in number of cells (SCC-1 cells [1]; control siRNA-exposed SCC-1 cells, 10^-6 M, 96 h): 27%
- increase in number of cells (SCC-1 cells [1]; wt SCC-1 cells, 10^-6 M, 96 h): 24%

Compound: C=CCN1CC[C@]23c4c5ccc(O)c4O[C@H]2C(=O)CC[C@@]3(O)[C@H]1C5 [naloxone]
- p21 expression (p21): no effect
- p21 expression (p21; listed as NAL): no change
- p16 expression (p16 [2]): no effect
- p16 expression (p16 [2]; listed as NAL): no change

Compound: OGFr-siRNA: OGFr-targeted siRNA duplex (SEQ ID NO:3 and 4) from Ambion (chain 1 UAGAAACUCAGGUUUGGCG; chain 2 CGCCAAACCUGAGUUUCUA; listed as RNA, chemistry not given here)
- more cells than wt and control siRNA-treated cultures (SCC-1 cells [1]; 20 nM siRNA, 96 h): approximately 19%

Compound: p16 siRNA: p16-targeted siRNA duplex (SEQ ID NO:5 and 6) from Invitrogen (chain 1 ACACCGCUUCUGCCUUUUCUU; chain 2 GAAAAGGCAGAAGCGGUGUUU; chemistry not given here)
- p16 levels relative to control cells (p16 [3]): significantly reduced p16 levels
- effect of p16 knockdown on OGF growth inhibition (SCC-1 cells [4]): blocked OGF inhibitory action
- p16 protein level compared to untransfected cells (p16 [2]; SCC-1 cells transfected with p16 siRNA, after 72 h): significantly reduced levels
- p16 protein level compared to control cells (p16 [5]): significantly reduced levels
